Source: PMC5218480 (PLoS ONE, 2017)

System: MV-4-11 cells
Assay: Gene expression microarray analysis (Affymetrix PrimeView) and GSEA
Format: cell-based, human
Set-up: RFU PODN (11730768_x_at) / Fold change /veh PODN (11730768_x_at) / RFU LINC00158 (11744669_a_at) / Fold change /veh LINC00158 (11744669_a_at) / RFU DUSP10 (11751237_a_at) / Fold change /veh DUSP10 (11751237_a_at) / RFU ID3 (11757404_x_at) / Fold change /veh ID3 (11757404_x_at) / RFU PLEKHG5 (11737974_s_at) / Fold change /veh PLEKHG5 (11737974_s_at) / RFU LRRC4B (11730491_at) / Fold change /veh LRRC4B (11730491_at) / RFU GIMAP4 (11747438_a_at) / Fold change /veh GIMAP4 (11747438_a_at) / RFU KRT8 (11758183_x_at) / Fold change /veh KRT8 (11758183_x_at) / RFU CNN1 (11734310_a_at) / Fold change /veh CNN1 (11734310_a_at) / RFU VPS37D (11726825_at) / Fold change /veh VPS37D (11726825_at) / RFU C10orf10 (11716522_x_at) / Fold change /veh C10orf10 (11716522_x_at) / RFU KIR2DL2 /// KIR2DL4 /// KIR2DL5A /// KIR2DL5B /// KIR2DS1 /// KIR2DS2 /// KIR2DS3 /// KIR2DS4 /// KIR3DL3 /// KIR3DL3 /// KIR3DS1 (11738374_at) / Fold change /veh KIR2DL2 /// KIR2DL4 /// KIR2DL5A /// KIR2DL5B /// KIR2DS1 /// KIR2DS2 /// KIR2DS3 /// KIR2DS4 /// KIR3DL3 /// KIR3DL3 /// KIR3DS1 (11738374_at) / RFU C1QL1 (11718748_at) / Fold change /veh C1QL1 (11718748_at) / RFU TMPRSS4 (11747572_a_at) / Fold change /veh TMPRSS4 (11747572_a_at) / RFU HAMP (11756126_x_at) / Fold change /veh HAMP (11756126_x_at) / RFU RNFT2 (11725882_a_at) / Fold change /veh RNFT2 (11725882_a_at) / RFU NR4A2 (11747474_a_at) / Fold change /veh NR4A2 (11747474_a_at) / RFU ABCC12 (11746883_a_at) / Fold change /veh ABCC12 (11746883_a_at) / RFU TMEM136 (11760407_x_at) / Fold change /veh TMEM136 (11760407_x_at) / RFU CLDN22 /// WWC2 (11732394_at) / Fold change /veh CLDN22 /// WWC2 (11732394_at) / RFU HLA-DPB1 (11760878_x_at) / Fold change /veh HLA-DPB1 (11760878_x_at) / RFU SPINT1 (11716480_a_at) / Fold change /veh SPINT1 (11716480_a_at) / RFU GAP43 (11754022_s_at) / Fold change /veh GAP43 (11754022_s_at) / RFU A4GNT (11735810_at) / Fold change /veh A4GNT (11735810_at) / RFU PRB3 (11715151_x_at) / Fold change /veh PRB3 (11715151_x_at) / RFU TUBB4B (11761932_at) / Fold change /veh TUBB4B (11761932_at) / RFU CAPN14 (11732068_a_at) / Fold change /veh CAPN14 (11732068_a_at) / RFU TMCC2 (11721928_a_at) / Fold change /veh TMCC2 (11721928_a_at) / RFU IRGQ (11745062_a_at) / Fold change /veh IRGQ (11745062_a_at) / RFU FAM174B (11720279_a_at) / Fold change /veh FAM174B (11720279_a_at) / RFU TMPRSS4 (11748680_a_at) / Fold change /veh TMPRSS4 (11748680_a_at) / RFU FAM212B (11763350_a_at) / Fold change /veh FAM212B (11763350_a_at) / RFU PLEKHG5 (11743358_a_at) / Fold change /veh PLEKHG5 (11743358_a_at) / RFU ZSCAN30 (11745921_a_at) / Fold change /veh ZSCAN30 (11745921_a_at) / RFU CMKLR1 (11741424_a_at) / Fold change /veh CMKLR1 (11741424_a_at) / RFU LOC101060620 /// MAPK8IP1 (11723275_at) / Fold change /veh LOC101060620 /// MAPK8IP1 (11723275_at) / RFU SPTSSB (11747773_x_at) / Fold change /veh SPTSSB (11747773_x_at) / RFU PRSS12 (11739890_at) / Fold change /veh PRSS12 (11739890_at) / RFU BIN1 (11741810_x_at) / Fold change /veh BIN1 (11741810_x_at) / RFU WNT11 (11732464_a_at) / Fold change /veh WNT11 (11732464_a_at) / RFU C10orf10 (11716521_a_at) / Fold change /veh C10orf10 (11716521_a_at) / RFU C5orf56 (11738089_at) / Fold change /veh C5orf56 (11738089_at) / RFU CYB561 (11721691_x_at) / Fold change /veh CYB561 (11721691_x_at) / RFU ANKRD19P (11752326_a_at) / Fold change /veh ANKRD19P (11752326_a_at) / RFU OR2T12 /// OR2T33 /// OR2T8 (11738714_s_at) / Fold change /veh OR2T12 /// OR2T33 /// OR2T8 (11738714_s_at) / RFU VCAN (11748164_a_at) / Fold change /veh VCAN (11748164_a_at) / RFU JSRP1 (11732532_at) / Fold change /veh JSRP1 (11732532_at) / RFU KRTAP10-11 (11738290_x_at) / Fold change /veh KRTAP10-11 (11738290_x_at) / RFU MYO3A (11730013_a_at) / Fold change /veh MYO3A (11730013_a_at) / RFU EBF3 (11725865_a_at) / Fold change /veh EBF3 (11725865_a_at) / RFU CAMK2N1 (11719241_x_at) / Fold change /veh CAMK2N1 (11719241_x_at) / RFU C5orf56 (11738088_a_at) / Fold change /veh C5orf56 (11738088_a_at) / RFU OLFML3 (11715873_a_at) / Fold change /veh OLFML3 (11715873_a_at) / RFU LOC100653217 /// NTM (11731650_a_at) / Fold change /veh LOC100653217 /// NTM (11731650_a_at) / RFU MAPK11 (11762145_a_at) / Fold change /veh MAPK11 (11762145_a_at) / RFU FIZ1 (11724087_x_at) / Fold change /veh FIZ1 (11724087_x_at) / RFU OASL (11726364_x_at) / Fold change /veh OASL (11726364_x_at) / RFU SOX15 (11748057_x_at) / Fold change /veh SOX15 (11748057_x_at) / RFU CD79A (11719716_a_at) / Fold change /veh CD79A (11719716_a_at) / RFU HIST1H1D (11736915_at) / Fold change /veh HIST1H1D (11736915_at) / RFU CASKIN2 (11723855_a_at) / Fold change /veh CASKIN2 (11723855_a_at) / RFU LOC730098 (11760151_x_at) / Fold change /veh LOC730098 (11760151_x_at) / RFU OR4N2 (11742367_at) / Fold change /veh OR4N2 (11742367_at) / RFU PRRT2 (11749266_a_at) / Fold change /veh PRRT2 (11749266_a_at) / RFU SNX32 (11753110_a_at) / Fold change /veh SNX32 (11753110_a_at) / RFU CDHR5 (11726645_a_at) / Fold change /veh CDHR5 (11726645_a_at) / RFU RCAN1 (11760418_a_at) / Fold change /veh RCAN1 (11760418_a_at) / RFU FAM167A (11723789_a_at) / Fold change /veh FAM167A (11723789_a_at) / RFU FAM26E (11764081_at) / Fold change /veh FAM26E (11764081_at) / RFU ISYNA1 (11749810_s_at) / Fold change /veh ISYNA1 (11749810_s_at) / RFU ACY1 (11761880_at) / Fold change /veh ACY1 (11761880_at) / RFU 11764098_at / Fold change /veh 11764098_at / RFU SAMD14 (11745864_x_at) / Fold change /veh SAMD14 (11745864_x_at) / RFU NPB (11741838_a_at) / Fold change /veh NPB (11741838_a_at) / RFU TMPRSS6 (11731388_a_at) / Fold change /veh TMPRSS6 (11731388_a_at) / RFU KRTAP10-2 (11738614_at) / Fold change /veh KRTAP10-2 (11738614_at) / RFU ARHGAP8 /// PRR5-ARHGAP8 (11727945_x_at) / Fold change /veh ARHGAP8 /// PRR5-ARHGAP8 (11727945_x_at) / RFU KRTAP5-7 /// NADSYN1 (11734609_at) / Fold change /veh KRTAP5-7 /// NADSYN1 (11734609_at) / RFU RASL12 (11751679_a_at) / Fold change /veh RASL12 (11751679_a_at) / RFU CDKN2B (11736163_a_at) / Fold change /veh CDKN2B (11736163_a_at) / RFU PRF1 (11729649_at) / Fold change /veh PRF1 (11729649_at) / RFU, ZNF638 /// ZNF638-IT1 / Fold change vs veh, ZNF638 /// ZNF638-IT1 / RFU, PANK3 / Fold change vs veh, PANK3 / RFU, SH3YL1 / Fold change vs veh, SH3YL1 / RFU, ZEB2 / Fold change vs veh, ZEB2 / RFU, NRIP1 / Fold change vs veh, NRIP1 / RFU, PTTG1IP / Fold change vs veh, PTTG1IP / RFU, CAPN2 / Fold change vs veh, CAPN2 / RFU, MED14 / Fold change vs veh, MED14 / RFU, SNORA58 / Fold change vs veh, SNORA58 / RFU, C1orf63 / Fold change vs veh, C1orf63 / RFU, LRRFIP1 / Fold change vs veh, LRRFIP1 / RFU, NDUFAF7 / Fold change vs veh, NDUFAF7 / RFU, SLC12A2 / Fold change vs veh, SLC12A2 / RFU, IBTK / Fold change vs veh, IBTK / RFU, ESF1 / Fold change vs veh, ESF1 / Fold change vs veh, TMEM50B / RFU, TAOK1 / Fold change vs veh, TAOK1 / RFU, ACBD3 / Fold change vs veh, ACBD3 / RFU, TMA16 / Fold change vs veh, TMA16 / RFU, RWDD3 / Fold change vs veh, RWDD3 / RFU, BCAT1 / Fold change vs veh, BCAT1 / RFU, EDEM3 / Fold change vs veh, EDEM3 / RFU, TMEM33 / Fold change vs veh, TMEM33 / RFU, WDR75 / Fold change vs veh, WDR75 / RFU, AHCTF1 / Fold change vs veh, AHCTF1 / RFU, TFRC / Fold change vs veh, TFRC / RFU, ZDHHC17 / Fold change vs veh, ZDHHC17 / RFU, NOM1 / Fold change vs veh, NOM1 / RFU, ARL8B / Fold change vs veh, ARL8B / RFU, ZBTB11 / Fold change vs veh, ZBTB11 / RFU, TAMM41 / Fold change vs veh, TAMM41 / RFU, KIAA1704 /// LOC100996395 / Fold change vs veh, KIAA1704 /// LOC100996395 / RFU, ING1 / Fold change vs veh, ING1 / RFU, TRMT61B / Fold change vs veh, TRMT61B / RFU, FUBP3 / Fold change vs veh, FUBP3 / RFU, TP53 / Fold change vs veh, TP53 / RFU, TNKS2 / Fold change vs veh, TNKS2 / RFU, ZFP14 / Fold change vs veh, ZFP14 / RFU, ACTR2 / Fold change vs veh, ACTR2 / RFU, PPP3R1 / Fold change vs veh, PPP3R1 / RFU, PIK3R1 / Fold change vs veh, PIK3R1 / RFU, HNRNPA1 / Fold change vs veh, HNRNPA1 / RFU, RNF170 / Fold change vs veh, RNF170 / RFU, ZNF28 / Fold change vs veh, ZNF28 / RFU, RNGTT / Fold change vs veh, RNGTT / RFU, OGT / Fold change vs veh, OGT / RFU, BRD1 / Fold change vs veh, BRD1 / RFU, MARS / Fold change vs veh, MARS / RFU, ZNF655 / Fold change vs veh, ZNF655 / RFU, FAHD1 / Fold change vs veh, FAHD1 / RFU, BDP1 / Fold change vs veh, BDP1 / RFU, LRRCC1 / Fold change vs veh, LRRCC1 / RFU, ARID1A / Fold change vs veh, ARID1A / RFU, ZNF146 / Fold change vs veh, ZNF146 / RFU, ZNF330 / Fold change vs veh, ZNF330 / RFU, GPN3 / Fold change vs veh, GPN3 / RFU, C9orf123 / Fold change vs veh, C9orf123 / RFU, N4BP2L2 / Fold change vs veh, N4BP2L2 / RFU, ARFIP1 / Fold change vs veh, ARFIP1 / RFU, FAM179B / Fold change vs veh, FAM179B / RFU, BCL10 / Fold change vs veh, BCL10 / RFU, UHRF1BP1L / Fold change vs veh, UHRF1BP1L / RFU, BET1 / Fold change vs veh, BET1 / RFU, CNOT2 / Fold change vs veh, CNOT2 / RFU, ZNF268 / Fold change vs veh, ZNF268 / Fold change vs veh, ZNF507 / RFU, DGCR2 / Fold change vs veh, DGCR2 / RFU, WDSUB1 / Fold change vs veh, WDSUB1 / Fold change vs veh, HSP90B1 /// MIR3652 / RFU, ADSS / Fold change vs veh, ADSS / RFU, GK / Fold change vs veh, GK / RFU, ZNF148 / Fold change vs veh, ZNF148 / RFU, TAF9 / Fold change vs veh, TAF9 / RFU, SLC1A5 / Fold change vs veh, SLC1A5 / RFU, SLMO2 / Fold change vs veh, SLMO2 / RFU, ABCC4 / Fold change vs veh, ABCC4 / RFU, LOC101060439 /// RAP1B / Fold change vs veh, LOC101060439 /// RAP1B / RFU, RFX7 / Fold change vs veh, RFX7 / RFU, GTPBP10 / Fold change vs veh, GTPBP10 / RFU, CNEP1R1 / Fold change vs veh, CNEP1R1 / RFU, BIVM-ERCC5 /// ERCC5 / Fold change vs veh, BIVM-ERCC5 /// ERCC5 / RFU, ILF3 / Fold change vs veh, ILF3 / RFU 11762660_at / Fold change /veh 11762660_at / RFU VCAN (11757783_s_at) / Fold change /veh VCAN (11757783_s_at) / RFU DDX43 (11728927_at) / Fold change /veh DDX43 (11728927_at) / RFU KRT8 (11758188_x_at) / Fold change /veh KRT8 (11758188_x_at) / RFU NKD1 (11759106_at) / Fold change /veh NKD1 (11759106_at) / RFU SRD5A1 (11742802_a_at) / Fold change /veh SRD5A1 (11742802_a_at) / RFU TPSAB1 /// TPSB2 (11721975_s_at) / Fold change /veh TPSAB1 /// TPSB2 (11721975_s_at) / RFU GSTM3 (11746129_a_at) / Fold change /veh GSTM3 (11746129_a_at) / RFU IL23R (11737362_x_at) / Fold change /veh IL23R (11737362_x_at) / RFU TMEM51 (11727254_a_at) / Fold change /veh TMEM51 (11727254_a_at) / RFU PIWIL2 (11732686_x_at) / Fold change /veh PIWIL2 (11732686_x_at) / RFU ORM1 (11744905_x_at) / Fold change /veh ORM1 (11744905_x_at) / RFU CCDC152 (11743942_at) / Fold change /veh CCDC152 (11743942_at) / RFU ECM1 (11717891_a_at) / Fold change /veh ECM1 (11717891_a_at) / RFU IL23R (11748794_a_at) / Fold change /veh IL23R (11748794_a_at) / RFU TNFAIP8L3 (11732012_x_at) / Fold change /veh TNFAIP8L3 (11732012_x_at) / RFU MBOAT4 (11741988_at) / Fold change /veh MBOAT4 (11741988_at) / RFU 11764193_at / Fold change /veh 11764193_at / RFU TMEM53 (11763286_at) / Fold change /veh TMEM53 (11763286_at) / RFU MAGEB2 (11727129_at) / Fold change /veh MAGEB2 (11727129_at) / RFU TMEM200A (11744735_a_at) / Fold change /veh TMEM200A (11744735_a_at) / RFU CCDC152 (11751479_a_at) / Fold change /veh CCDC152 (11751479_a_at) / RFU FAM211A (11726209_a_at) / Fold change /veh FAM211A (11726209_a_at) / RFU RGS16 (11746705_a_at) / Fold change /veh RGS16 (11746705_a_at) / RFU VCAN (11755009_s_at) / Fold change /veh VCAN (11755009_s_at) / RFU RHOB (11743442_s_at) / Fold change /veh RHOB (11743442_s_at) / RFU RGS16 (11720943_a_at) / Fold change /veh RGS16 (11720943_a_at) / RFU RGS16 (11720944_at) / Fold change /veh RGS16 (11720944_at) / RFU, VPS4B / Fold change vs veh, VPS4B / RFU, CREB1 / Fold change vs veh, CREB1 / RFU, DNAJC13 / Fold change vs veh, DNAJC13 / RFU, GNAQ / Fold change vs veh, GNAQ / RFU, CDK5R1 / Fold change vs veh, CDK5R1 / RFU, ZRANB3 / Fold change vs veh, ZRANB3 / RFU, CUL4A / Fold change vs veh, CUL4A / RFU, CCNY / Fold change vs veh, CCNY / RFU, UFL1 / Fold change vs veh, UFL1 / RFU, COG3 / Fold change vs veh, COG3 / RFU, DIAPH2 / Fold change vs veh, DIAPH2 / RFU, SKA2 / Fold change vs veh, SKA2 / RFU, AFF3 / Fold change vs veh, AFF3 / RFU, LMF1 / Fold change vs veh, LMF1 / RFU, IPO11 / Fold change vs veh, IPO11 / RFU, DFFB / Fold change vs veh, DFFB / RFU, FOXP1 / Fold change vs veh, FOXP1 / RFU, CARD8 / Fold change vs veh, CARD8 / RFU, STRN3 / Fold change vs veh, STRN3 / RFU, ADK / Fold change vs veh, ADK / RFU, RASSF2 / Fold change vs veh, RASSF2 / RFU, WIPF1 / Fold change vs veh, WIPF1 / RFU, LARP1B / Fold change vs veh, LARP1B / RFU, RASA1 / Fold change vs veh, RASA1 / RFU, RB1 / Fold change vs veh, RB1 / RFU, PPFIA1 / Fold change vs veh, PPFIA1 / RFU, MAT2A / Fold change vs veh, MAT2A / RFU, CCT5 / Fold change vs veh, CCT5 / RFU, WDR92 / Fold change vs veh, WDR92 / RFU, CUX1 / Fold change vs veh, CUX1 / RFU, TTC7A / Fold change vs veh, TTC7A / RFU, TMEM135 / Fold change vs veh, TMEM135 / RFU, DEPTOR / Fold change vs veh, DEPTOR / RFU, CPM / Fold change vs veh, CPM / RFU, DNAJB6 / Fold change vs veh, DNAJB6 / RFU, CACNA2D3 / Fold change vs veh, CACNA2D3 / RFU, DTX4 / Fold change vs veh, DTX4 / RFU, TFCP2 / Fold change vs veh, TFCP2 / RFU, GMCL1 /// GMCL1P1 / Fold change vs veh, GMCL1 /// GMCL1P1 / RFU, AEBP2 / Fold change vs veh, AEBP2 / RFU, SNHG1 /// SNORD22 /// SNORD25 /// SNORD26 /// SNORD27 /// SNORD28 /// SNORD29 /// SNORD31 / Fold change vs veh, SNHG1 /// SNORD22 /// SNORD25 /// SNORD26 /// SNORD27 /// SNORD28 /// SNORD29 /// SNORD31 / Fold change (Aza/veh), C12orf56 (ProbeSet 11735607_a_at) / Fold change (ACY-1035/veh), C12orf56 (ProbeSet 11735607_a_at) / Fold change (Aza/veh), FGFR1OP (ProbeSet 11751329_s_at) / Fold change (ACY-1035/veh), FGFR1OP (ProbeSet 11751329_s_at) / Fold change (Aza/veh), VPS36 (ProbeSet 11739960_a_at) / Fold change (ACY-1035/veh), VPS36 (ProbeSet 11739960_a_at) / RFU SYPL1 (11715823_x_at) / Fold change /veh SYPL1 (11715823_x_at) / RFU IGFBP7 (11715501_s_at) / Fold change /veh IGFBP7 (11715501_s_at) / RFU REEP3 (11722064_at) / Fold change /veh REEP3 (11722064_at) / RFU IGLL1 (11728026_x_at) / Fold change /veh IGLL1 (11728026_x_at): dose or concentration left out as unconfirmed
Conditions: ProbeSet 11740781_a_at; LIST B

Nc1ncn([C@@H]2O[C@H](CO)[C@@H](O)[C@H]2O)c(=O)n1 [azacitidine]
Fold change vs veh, ILF3: 0.96
